According to patent publication US20210024499A1, “OXIDIZED BIS(3-INDOLYL)METHANES AND USES THEREOF” (Sanford Burnam Prebys Medical Discovery Institute, priority 2018, published 2021):

How the values were obtained:
HCT116 cells = assay: DAPI staining for apoptosis, HCT116; assay type: cell-based; conditions: 0.5 μM, 6 hours, counted in 200 cells
Experimental: In HCT116 cells, about 80% apoptotic cells were detected when cells were treated with Compound 1 compared to less than 5% when cells were not treated with Compound 1. Apoptotic cells were counted in 200 cells.

Nur77 = target: T1, Nur77 (Homo sapiens, UniProt P22736); assay: Nur77 expression and mitochondrial targeting with BI2030, HeLa; assay type: cell-based; conditions: HeLa cells
T1 construct: expressed in transfected cells
T1 sequence (P22736 whole entry): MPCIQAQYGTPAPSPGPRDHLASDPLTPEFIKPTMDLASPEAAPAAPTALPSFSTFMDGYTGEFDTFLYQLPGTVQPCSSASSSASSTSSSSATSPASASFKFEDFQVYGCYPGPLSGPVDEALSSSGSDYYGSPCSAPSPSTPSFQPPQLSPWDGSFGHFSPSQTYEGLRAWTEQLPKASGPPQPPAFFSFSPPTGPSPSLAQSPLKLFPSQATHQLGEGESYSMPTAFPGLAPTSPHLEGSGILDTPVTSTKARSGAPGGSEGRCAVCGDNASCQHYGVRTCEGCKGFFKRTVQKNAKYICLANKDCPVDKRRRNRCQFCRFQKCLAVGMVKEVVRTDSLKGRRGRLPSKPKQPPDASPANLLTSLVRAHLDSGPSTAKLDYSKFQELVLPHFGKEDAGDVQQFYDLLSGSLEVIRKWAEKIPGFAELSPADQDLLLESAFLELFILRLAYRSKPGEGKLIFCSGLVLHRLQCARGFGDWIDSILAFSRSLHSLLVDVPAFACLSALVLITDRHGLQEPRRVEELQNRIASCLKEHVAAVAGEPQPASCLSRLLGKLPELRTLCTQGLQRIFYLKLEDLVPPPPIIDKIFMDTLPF
Text: To further characterize the effect of Compound 1 on promoting Nur77 mitochondrial targeting, we investigated the effect of Compound 1 in combination with BI2030 on Nur77 mitochondrial targeting and apoptosis induction. […] When Compound 1 and B12030 were used together, most of the BI2030-induced Nur77 protein was found in the heavy membrane fraction, and formed punctate structure in the cytoplasm, as visualized by confocal microscopy.

GFP-Nur77 = GFP-Nur77 (Homo sapiens, UniProt P22736); assay: GFP-Nur77 localization in transfected HEK293T cells; assay type: cell-based; conditions: HEK293T cells transfected with GFP-Nur77, 0.5 μM
Sequence of GFP-Nur77 (P22736 whole entry): as above
Experimental: Cells were fixed in 3.7% paraformaldehyde. For mitochondrial staining, cells were incubated with anti-Hsp60 goat immunoglobulin G (IgG) (Santa Cruz Biotechnology, Santa Cruz, Calif.), followed by anti-goat IgG conjugated with Cy3. The nuclei were visualized by DAPI staining. Fluorescent images were collected and analyzed by using a fluorescence microscopy or MRC-1024 MP laser-scanning confocal microscope (Bio-Rad, Hercules, Calif.).
To confirm the effect of Compound 1 on Nur77 cytoplasmic localization, HEK293T cells were transfected with GFP-Nur77 and subsequently treated with 0.5 μM Compound 1.

SW480 cells = assay: PARP cleavage assay (Western blotting), SW480; assay type: cell-based; conditions: 6 hours
Text: Compound 1a had no effect under the same conditions (FIG. 1A). […] Compound 1a, 28a, 47a, 48a, 73a, 39a, 70a, 103a, 89a and 88a had no effect under the same conditions (FIG. 3B-C).

HCT116 cancer cells = assay: Cell viability (MTT) assay, HCT116; assay type: cell-based; conditions: Homo sapiens, HCT-116; inhibiting the growth of HCT116 cancer cells, cell viability assay (Table 5)
Experimental: Cell viability was analyzed by using a colorimetric 3-(4,5-dimethylthiazol-[…]2-yl)-2,5-diphenyletetrazolium Bromide (MTT) assay that determines mitochondrial dehydrogenase activities in the living cells with a colorimetric method. Cells treated with test compounds were incubated with MTT and their effect on the viability of the cells was assayed by the ability of treated cells to reduce the yellow tetrazolium dye MTT to its insoluble formazan, which has a purple color. […]

Bcl-2−/−MEF cells = assay: Mitochondrial ROS, Bcl-2-/- MEF; assay type: cell-based, mouse
Experimental: (§1) Loss of mitochondrial membrane potential (Avm) represents one of the hallmarks of apoptosis. A JC-1 probe was employed to measure mitochondrial depolarization in cancer cells. MDA-MB-231 breast cancer cells were treated with different concentration of test compounds for 6 hours. JC-1 staining solution (5 μg/ml) was added at 37° C. for 20 min. After washing with PBS twice, mitochondrial membrane potentials were monitored by determining the relative amounts of dual emission from a multiple fluorescence reader. The fluorescence in cells was quantitatively analyzed by flow cytometry. Mitochondrial depolarization is depicted by an increase in the green/red fluorescence intensity ratio. ROS were monitored with the oxiadtion-senstive fluorescent probe 2′7′-dichlorodihydroflurescenin diacetate (DCF-DA).
(§2) In addition, Bcl-2^−/−MEF cells were more resistant than the parental MEF cells to Compound 1 in its induction of the mitochondrial membrane potential loss measured by JC1 staining and in the release of mitochondrial ROS (as performed in Example A-12).

Nur77−/− HeLa cells = assay: Mitochondrial membrane potential (JC1), Nur77 knockout HeLa; assay type: cell-based; conditions: 1 μM, 6 h
Experimental: as §1
Furthermore, Nur77^−/−HeLa cells were more resistant than the parental HeLa cells to Compound 1 in its induction of the mitochondrial membrane potential loss measured by JC1 staining and in the release of mitochondrial ROS (as performed in Example A-12).

[1] = target: T2, Nur77-LBD interaction with GST-Bcl-2 (Homo sapiens, UniProt P22736); assay: GST-pull down of Nur77-LBD by GST-Bcl-2; assay type: binding; conditions: in vitro, GST-Bcl-2, FIG. 11
T2 construct: incubated with purified His-Nur77-LBD (0.2 mg) in the presence of Compound 1; made in house
T2 sequence (P22736 360-595 limits assumed): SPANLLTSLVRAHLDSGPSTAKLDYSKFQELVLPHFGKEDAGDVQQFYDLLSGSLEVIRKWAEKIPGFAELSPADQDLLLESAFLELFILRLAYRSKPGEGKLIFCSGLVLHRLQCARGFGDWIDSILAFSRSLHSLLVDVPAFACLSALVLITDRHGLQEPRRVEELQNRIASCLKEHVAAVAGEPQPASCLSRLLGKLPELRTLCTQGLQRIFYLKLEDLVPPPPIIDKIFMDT
T2 sequence (P10415 whole entry partner, the tested form may be a part): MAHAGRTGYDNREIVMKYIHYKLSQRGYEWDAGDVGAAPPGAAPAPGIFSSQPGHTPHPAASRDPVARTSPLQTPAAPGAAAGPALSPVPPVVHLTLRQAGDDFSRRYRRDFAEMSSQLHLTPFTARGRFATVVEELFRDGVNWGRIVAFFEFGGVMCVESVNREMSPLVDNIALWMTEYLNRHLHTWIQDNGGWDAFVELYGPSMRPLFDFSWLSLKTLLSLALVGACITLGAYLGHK
Experimental: GST or GST-Bcl-2 fusion protein (0.5 mg) was immobilized on glutathione-Sepharose beads and incubated with purified His-Nur77-LBD (0.2 mg) in the presence of Compound 1 for 1 hour at room temperature to promote GST-Bcl-2 interaction with His-Nur77-LBD. Bound Nur77-LBD was analyzed by Western blotting.

Nur77-LBD = target: T3, Nur77-LBD (Homo sapiens, UniProt P22736); assay: Circular dichroism (CD) binding to Nur77-LBD; conditions: purified Nur77-LBD, spectra changed at 50° C. and above (FIG. 9)
T3 construct: Protein spectra of purified Nur77-LBD at temperature 50° C. and above changed substantially; His (N); made in house
T3 sequence (P22736 360-595 limits assumed): as the sequence (P22736 360-595 limits assumed) above
Experimental: Stock solutions of 100 mM test compound in ethanol were added to 0.5 ml of 1 μM purified His-proteins in PBS, pH 7.6. CD spectra were obtained in a 0.2 cm path length cell at temperature between 25° C. to 65° C. by using an AVIV 62 DS spectropolarimeter for a wavelength range at 220 nm. Three spectra were corrected for background and averaged for each sample. The Kd was determined using nonlinear regression analysis for a one-site binding model (χ2>0.98).

Bcl-2−/−HeLa cells [2] = assay: PARP cleavage and caspase 3 activation, Bcl-2 knockout HeLa; assay type: cell-based
Experimental: Knocking out Nur77 and Bcl-2 from HeLa cells employed the CRISPR/Cas9 system. gRNA targeting sequence of Nur77 (5′-[…]-3′) and Bcl-2 (5′-[…]-3′) was cloned into gRNA cloning vector Px330 (Addgene, 71707) and confirmed by sequencing. To screen for cells lacking Nur77 or Bcl-2, HeLa cells were transfected with control vector and gRNA expression vectors, followed by G418 selection (0.5mg/m1). Single colonies were subjected to Western blotting using anti-Nur77 and anti-Bcl-2 antibody to select knockout cells.
The apoptotic effect of Compound lwas also evaluated in Bcl-2 genome knockout HeLa cells generated by CRISPR/Cas9 technology (Example A-5).

[3] = test system: mTOR markers p-S6 and p-4EBP1; assay: mTOR inhibition: expression of mTOR markers; assay type: cell-based; conditions: MDA-MB-231 cells, 6 hours
Bcl-2−/−HeLa cells [4] = assay: Mitochondrial membrane potential (JC1), Bcl-2-/- cells of the MEF study; assay type: cell-based; conditions: Bcl-2−/−HeLa cells as printed, 0.5 μM, 6 h
Experimental: as §1, §2

## FC(F)(F)c1ccc([C+](c2c[nH]c3ccccc23)c2c[nH]c3ccccc23)cc1 [Compound 1, Bis(1H-indol-3-yl)(4-(trifluoromethyl)phenyl)methylium methanesulfonate]
HCT116 cells
  apoptotic cells (DAPI staining): about 80%
Nur77; Compound 1 0.5 μM, BI2030 1 μM, 2 hours (FIG. 5)
  induction of Nur77 expression: incapable of inducing Nur77 expression
Nur77; heavy membrane fraction, Compound 1 tested together with BI2030
  Nur77 mitochondrial accumulation / targeting: able to induce mitochondrial targeting of BI2030-induced Nur77 protein
GFP-Nur77
  GFP-Nur77 subcellular localization: diffusely distributed in both the cytoplasm and nucleus
SW480 cells
  concentration inducing PARP cleavage (dose dependent study): submicromolar concentrations
HCT116 cancer cells
  IC50: < 500 nM
Bcl-2−/−MEF cells
  increase in mito-ROS relative to regular MEF cells: smaller increase
Nur77−/− HeLa cells
  JC1 green to red ratio: no significant change
[1]
  Nur77-LBD pulled down (GST-pull down): concentration dependent manner
Nur77-LBD
  binding to Nur77-LBD (CD spectra): direct binding
Bcl-2−/−HeLa cells [2]
  induction of PARP cleavage and caspase 3 activation: strongly suppressed
[3]; 0.75 μM
  expression levels of mTOR marker p-4EBP1: reduced the expression levels
[3]; 1 μM
  expression levels of mTOR markers p-S6 and p-4EBP1: reduced the expression levels
Bcl-2−/−HeLa cells [4]
  JC1 green to red ratio (control 100%): 150%
